These results are taken from patent US20150306108A1, “COMPOSITIONS OF ALDH1A1 INHIBITORS AND METHODS OF USE IN TREATING CANCER” (Indiana University Research & Technology Corporation, priority 2014, published 2015).

One test has as its target T1, ALDH1A1 (Homo sapiens, UniProt P00352).
T1 construct: made in house
T1 sequence (P00352 1-501): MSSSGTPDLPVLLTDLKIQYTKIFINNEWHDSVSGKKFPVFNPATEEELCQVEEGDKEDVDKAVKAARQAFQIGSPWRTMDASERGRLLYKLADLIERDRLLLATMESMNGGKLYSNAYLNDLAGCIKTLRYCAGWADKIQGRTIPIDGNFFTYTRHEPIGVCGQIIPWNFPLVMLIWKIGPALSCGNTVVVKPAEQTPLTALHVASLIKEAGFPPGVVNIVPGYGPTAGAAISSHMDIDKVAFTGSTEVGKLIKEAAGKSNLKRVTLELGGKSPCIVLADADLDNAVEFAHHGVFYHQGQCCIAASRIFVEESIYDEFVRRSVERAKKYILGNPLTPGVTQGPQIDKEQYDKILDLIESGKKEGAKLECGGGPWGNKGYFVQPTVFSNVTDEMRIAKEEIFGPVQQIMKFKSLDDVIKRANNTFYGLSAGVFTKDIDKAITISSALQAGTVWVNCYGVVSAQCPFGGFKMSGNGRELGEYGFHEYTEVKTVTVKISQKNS
Briefly: ALDH1A1 aldehyde oxidation (dehydrogenase) activity assay, NADH formation at 340 nm. The format is biochemical.

Another test deals with T2, ALDH3A1 (Homo sapiens, UniProt P30838).
T2 construct: made in house
T2 sequence (P30838 1-453): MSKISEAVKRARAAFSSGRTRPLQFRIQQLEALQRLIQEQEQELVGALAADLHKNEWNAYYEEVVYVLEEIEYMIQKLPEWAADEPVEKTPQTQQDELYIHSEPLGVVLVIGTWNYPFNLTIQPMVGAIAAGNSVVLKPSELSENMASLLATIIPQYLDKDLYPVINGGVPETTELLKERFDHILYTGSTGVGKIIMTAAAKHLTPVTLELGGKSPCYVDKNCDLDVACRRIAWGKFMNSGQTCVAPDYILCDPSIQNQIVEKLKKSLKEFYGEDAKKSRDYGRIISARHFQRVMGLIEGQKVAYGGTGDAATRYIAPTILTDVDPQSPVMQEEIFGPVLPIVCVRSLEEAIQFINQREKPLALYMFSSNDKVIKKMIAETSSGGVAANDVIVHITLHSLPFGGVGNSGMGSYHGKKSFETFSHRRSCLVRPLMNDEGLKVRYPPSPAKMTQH
The test can be described thus: ALDH3A1 benzaldehyde oxidation activity assay. Format: biochemical. The following applies: Table 4; NI/NI(A) at 100 μM compound; read-out: IC50 in μM (SE) ALDH3A1. As for the experimental part: Hits from the HTS were ordered from ChemDiv to determine if they had any effect on aldehyde oxidation and whether they were selective for ALDH1A1 compared to ALDH2 and ALDH3A1. Dehydrogenase activity of the three isoenzymes were assayed by monitoring the production of NADH at 340 nm (molar extinction coefficient of 6220 M^−1 cm^−1) on a Beckman DU-640 or Cary 300 Bio UV-Vis spectrophotometer for 2 to 3 minutes. For ALDH1A1 and ALDH2, the reaction contained 100-200 nM enzyme, 200 μM NAD^+, 100 μM propionaldehyde, and 1% DMSO in 50 mM Na^+ BES, pH 7.5 at room temperature. For ALDH3A1, the reaction contained 20 nM enzyme, 200 μM NAD^+, 300 μM benzaldehyde, and 1% DMSO in either 100 mM sodium phosphate or 50 mM Na^+ BES at pH 7.5 at room temperature.
For most compounds, 20 μM concentration was used for the selectivity assays. […] Following a 2 minute incubation of enzyme, compound, and NAD^+, the reaction was initiated by adding substrate. […] Data were fit to the four parameter EC50 equation using SigmaPlot (StatSys v12.3).
Dehydrogenase activity of purified recombinant ALDH1A1, ALDH1A2, ALDH1A3, ALDH1B1, ALDH2, and ALDH3A1 was assayed spectrophotometrically by monitoring the formation of NADH at 340 nm (molar extinction coefficient of 6220 M^−1 cm^−1) on a Beckman DU-640 or Cary 300 Bio UV-Vis spectrophotometer. Characterization of ALDH1A1 WT and ALDH1A1 G458N were performed by co-varying acetaldehyde and NAD^+ concentrations in reactions containing 150-300 nM enzyme, 50-500 μM or 20-200 μM acetaldehyde, and 50-500 μM NAD^+ in 50 mM sodium BES, pH 7.5 at 25° C. Reactions were initiated by adding enzyme. Selectivity of compounds for dehydrogenase activity of ALDH1A1, ALDH1A2, ALDH1A3, ALDH1B1 and ALDH2 were measured in a solution containing 100-200 nM enzyme, 200 μM NAD^+, 1% DMSO, and 100 μM propionaldehyde (non-saturating for all enzymes tested, except ALDH2) in 50 mM sodium BES. ALDH3A1 activity was measured under the following conditions: 25 nM enzyme, 200 μM NAD^+, 1% DMSO, and 300 μM benzaldehyde (˜KM) in either 100 mM sodium phosphate buffer, pH 7.5 or 50 mM sodium BES, pH 7.5. All assays were performed at 25° C. and were initiated by the addition of the aldehyde substrate following a 2 minute pre-incubation with compound and cofactor. Selectivity was initially tested using 20 μM compound, with ALDH1A1-selective modulators further tested using 100 μM compound. […] After a 2 minute pre-incubation with compound and NAD^+, all reactions were initiated by the addition of propionaldehyde. Data were fit to the four parameter EC50 equation using SigmaPlot (StatSys v12.3). The values represent the average of three independent experiments (each n=3). The mode of inhibition was determined via steady-state kinetics by co-varying inhibitor and substrate concentrations at fixed concentration of the second substrate. All reactions contained 100-150 nM ALDH1A1 and 1% DMSO in 50 mM sodium BES, pH 7.5 at 25° C. […] All data were fit to competitive, noncompetitive, uncompetitive, and mixed inhibition models using both single substrate-single inhibitor or tight binding inhibition programs in SigmaPlot (StatSys v12.3). The appropriate model was selected through analysis of goodness-of-fit and the residuals of those fits. The values represent the average of three independent experiments (each n=3) using at least two protein preps.
ALDH1A1, ALDH1A2, ALDH1A3, ALDH2, and ALDH3A1 were produced and purified as previously described. A highthroughput screen (HTS) of 64,000 compounds from the ChemDiv Corp. was performed to identify activators and inhibitors of ALDH1A1. The hydrolysis of para-nitrophenylacetate was used as a measure ALDH1A1 activity (see SM). Selectivity for closely related orthologs was tested at 20 and 100 μM using purified recombinant human ALDH1A1, ALDH1A2, ALDH1A3, ALDH2, and ALDH3A1. […]

The target in a further test is T3, ALDH1A2 (Homo sapiens, UniProt O94788).
T3 sequence (O94788 1-518): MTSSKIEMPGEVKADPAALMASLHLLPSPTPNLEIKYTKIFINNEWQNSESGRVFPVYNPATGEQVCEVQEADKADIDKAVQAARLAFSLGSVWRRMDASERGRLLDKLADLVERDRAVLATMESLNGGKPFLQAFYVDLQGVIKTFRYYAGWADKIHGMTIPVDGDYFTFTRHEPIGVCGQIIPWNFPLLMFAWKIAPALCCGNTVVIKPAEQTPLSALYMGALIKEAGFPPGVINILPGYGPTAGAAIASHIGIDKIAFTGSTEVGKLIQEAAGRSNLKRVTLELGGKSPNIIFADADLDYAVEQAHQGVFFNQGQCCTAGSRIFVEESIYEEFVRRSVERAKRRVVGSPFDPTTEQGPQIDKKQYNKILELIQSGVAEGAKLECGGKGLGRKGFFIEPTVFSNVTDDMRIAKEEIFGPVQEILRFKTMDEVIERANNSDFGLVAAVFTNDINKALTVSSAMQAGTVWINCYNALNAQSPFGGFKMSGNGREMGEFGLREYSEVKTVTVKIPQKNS
Briefly: biochemical. Format: biochemical. The following applies: Table 4; NI/NI(A) at 100 μM compound; read-out: IC50 in μM (SE) ALDH1A2.

Another test relates to IGROV1 cells. The test can be described thus: Spheroid formation under low attachment culture conditions. Format: cell-based, human. The following applies: 50 μM, 7 days, low attachment. As for the experimental part: Ovarian cancer cell lines or primary cells were seeded at a concentration of 25,000 cells/ml in Mammocult complete medium (StemCell Technologies) and ultra-low attachment plates (Corning, Corning, N.Y.). Spheroids were trypsinized every 7 days and re-plated to generate successive generations. To observe spheroid morphology, A2780, SKOV3, IGROV1, and primary cells were cultured in a rotating bioreactor (Synthecon, Houston, Tex.) until […] compact spheroids were visible (10-30 days). They were harvested, preserved with Histochoice MB Tissue Fixative (Amresco, Solon, Ohio) for 1 hour, and embedded in Immuno-bed resin (Polysciences, Warrington, Pa.). Two micron thick sections were cut on an ultramicrotome and stained with 0.1% methylene blue/0.15% basic fuchsin in 50% methanol.
Cell viability was measured by the trypan blue (ThermoScientific) exclusion test. Cell proliferation was quantified by the MTT assay. Spheroids were counted after centrifugation at 300×g for 5 minutes. All assays were performed in four replicates. Data are presented as means±SEM.

[1] abbreviates: 100 μM propionaldehyde, 200 μM NAD+, mean/SEM of three independent assays, read-out: IC50 values with ALDH1A1 for compounds that inhibit dehydrogenase activity.
[2] abbreviates: list of inhibitors in summary and description, read-out: IC50 with the listed inhibitors of ALDH1A1 activity.

In general, IC50 refers to the point on the concentration scale where inhibition reaches its midpoint.

Like-named read-outs stand apart in the source and are kept apart here.

As to `Cc1ccc(-c2nnc(N3CCN(C)CC3)c3ccccc23)cc1C` [CM001], the IC50 on ALDH1A1 (setting [1]) and at ALDH1A1 (setting [2]) was 1.1 µM each time.

In the case of `CCOc1cc(S(=O)(=O)NCc2cccnc2)c(C)cc1C` [CM009], the IC50 at ALDH1A1 (setting [1]) and at ALDH1A1 (setting [2]) was 5.3 µM each time.

For the compound `C=CCc1cccc(CNc2nc3ccccc3n2CCC)c1O` [CM010], the IC50 on ALDH1A1 (setting [1]) and on ALDH1A1 (setting [2]) was 1.3 µM each time.

`CCC(C)NC(=O)C1(O)c2cc(Br)ccc2NC(O)N1c1ccc(Cl)cc1` (stereo not drawn) [CM020]: the IC50 at ALDH1A1 (setting [1]) and at ALDH1A1 (setting [2]) was 0.45 µM in each case.

Regarding `Cc1ccc(Cn2c(CN3CCN(c4ccccc4)CC3)nc3c2c(=O)n(C)c(=O)n3C)cc1` [CM025], at ALDH3A1, the IC50 is more than 100 µM.

On to `CCN1CCN(Cc2nc3c(c(=O)n(C)c(=O)n3C)n2CC(=O)c2ccccc2)CC1` [CM027], for which the IC50 on ALDH1A1 (Table 4, NI/NI(A) at 100 μM compound, * <70% maximum inhibition, read-out: IC50 in μM (SE) ALDH1A1) was found to be 6.1 µM.

With `NC(=O)CSc1nc2c(sc3ccccc32)c(=O)n1CCCN1CCCC1` [CM037a], the IC50 on ALDH1A1 (setting [1]) turned out to be 23 µM.

Turning to `Cc1nc2ccccc2c2oc(C(=O)N3CCCCC3)cc12` [CM038], the IC50 at ALDH1A1 (setting [1]) is 0.26 µM; at ALDH1A1 (setting [2]) it was 0.26 µM; on ALDH1A1 (propionaldehyde oxidation, values in nM, read-out: IC50 with ALDH1A1) it was less than 0.3 µM.

Turning to `COc1ccc(S(=O)(=O)N2N=C(c3cccc(NS(C)(=O)=O)c3)CC2c2ccco2)cc1` (stereo not drawn) [CM045], the IC50 at ALDH1A1 (setting [1]) and on ALDH1A1 (setting [2]) was 2.5 µM each time.

As for `Cc1cc(C)c(S(=O)(=O)Nc2ccc(O)c(Cl)c2)cc1C` [CM047], the IC50 at ALDH1A1 (setting [1]) and at ALDH1A1 (setting [2]) was 0.31 µM throughout.

On to `CC(C)CCn1c(CN2CCC(C(N)=O)CC2)nc2c1c(=O)n(C)c(=O)n2C` [CM053], for which the IC50 on ALDH3A1 is more than 100 µM.

In the case of `Cc1cccc(Cn2c(CN3CCN(C(=O)c4ccco4)CC3)nc3c2c(=O)n(C)c(=O)n3C)c1` [CM055], the IC50 at ALDH1A2 and at ALDH3A1 was more than 100 µM each time.

For the compound `CC(C)CCn1c(CN2CCC(C)CC2)nc2c1c(=O)n(C)c(=O)n2C` [CM057], at ALDH3A1, the IC50 is more than 100 µM.

With `CN1CCN(C(=O)c2ccc3c(c2)N(Cc2ccccc2)CCS3)CC1` [CM306], the 50% inhibitory concentration (IC50) on ALDH1A1 (setting [1]) and at ALDH1A1 (setting [2]) was 3.5 µM each time.

Regarding `Cc1ccc(S(=O)(=O)NCC2CCC(C(=O)NCc3ccco3)CC2)cc1` (stereo not drawn) [CM307], the IC50 at ALDH1A1 (setting [1]) and at ALDH1A1 (setting [2]) was 0.57 µM each time.

As to `CCN(CC)c1ccc(C=O)cc1` [DEAB, diethylaminobenzaldehyde, reference compound], in the test with IGROV1 cells, the formation of spheres result is “completely inhibited”.
